Results reported in PubChem BioAssay AID330 (DTP/NCI, 2004).
Several values for one entry are separate records, joined by “and”; a condition that tells them apart may be missing. Identical values can stand only once. Toxic doses and inconclusive results are not listed.

System: P388 leukemia ip, CD2F1 mice, survival T/C
Assay: NCI In Vivo Anticancer Drug Screen. Data for tumor model P388 Leukemia (intraperitoneal) in CD2F1 (CDF1) mice
Settings: endpoint: median survival time, higher = longer survival
Procedure, shortened: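 Mice carrying the transplanted tumor received test compound or vehicle. Survival was recorded in each group, and the value is the treated-group measurement divided by that of the vehicle-treated control group.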

[1] = dose: 50.0 mg/kg/injection, schedule: Q01DX005 (ip), vehicle: saline
[2] = dose: 50.0 mg/kg/injection, schedule: Q01DX009 (ip), vehicle: saline
[3] = dose: 100.0 mg/kg/injection, schedule: Q01DX005 (ip), vehicle: saline
[4] = dose: 200.0 mg/kg/injection, schedule: Q01DX005 (ip), vehicle: saline
[5] = dose: 200.0 mg/kg/injection, schedule: Q01DX009 (ip), vehicle: saline
[6] = dose: 50.0 mg/kg/injection, schedule: Q01DX009 (ip), vehicle: saline with Tween-80
[7] = dose: 100.0 mg/kg/injection, schedule: Q01DX009 (ip), vehicle: saline with Tween-80

**Q.** Which results are given for Nc1ncn(C2OC(CO)C(O)C2O)c(=O)n1 (centres undefined)?
**A.** T/C (dose: 0.19 mg/kg/injection, schedule: Q01DX009 (ip), vehicle: saline with Tween-80): 122 % of control; T/C (dose: 0.38 mg/kg/injection, schedule: Q01DX009 (ip), vehicle: saline with Tween-80): 154 % of control; T/C (dose: 0.75 mg/kg/injection, schedule: Q01DX009 (ip), vehicle: Klucel (hydroxypropylcellulose) (HPC)): 163 % of control; T/C (dose: 0.75 mg/kg/injection, schedule: Q01DX009 (ip), vehicle: saline with Tween-80): 181 % of control; T/C (dose: 0.75 mg/kg/injection, schedule: Q01DX009 (ip), vehicle: saline): 166 % of control and 172 % of control and 173 % of control; T/C (dose: 1.0 mg/kg/injection, schedule: Q01DX005 (ip), vehicle: saline): 172 % of control; T/C (dose: 1.0 mg/kg/injection, schedule: Q01DX005 (ip), vehicle: water): 150 % of control; T/C (dose: 1.5 mg/kg/injection, schedule: Q01DX009 (ip), vehicle: Klucel (hydroxypropylcellulose) (HPC)): 190 % of control; T/C (dose: 1.5 mg/kg/injection, schedule: Q01DX009 (ip), vehicle: saline with Tween-80): 195 % of control; T/C (dose: 1.5 mg/kg/injection, schedule: Q01DX009 (ip), vehicle: saline): 171 % of control and 185 % of control; T/C (dose: 1.56 mg/kg/injection, schedule: Q01DX009 (ip), vehicle: saline): 224 % of control; T/C (dose: 2.0 mg/kg/injection, schedule: Q01DX005 (ip), vehicle: water): 174 % of control; T/C (dose: 2.0 mg/kg/injection, schedule: Q01DX009 (ip), vehicle: saline): 209 % of control and 210 % of control; T/C (dose: 2.59 mg/kg/injection, schedule: Q04DX003 (ip), vehicle: saline): 162 % of control; T/C (dose: 2.7 mg/kg/injection, schedule: Q01DX009 (ip), vehicle: saline): 233 % of control; T/C (dose: 3.0 mg/kg/injection, schedule: Q01DX009 (ip), vehicle: Klucel (hydroxypropylcellulose) (HPC)): 245 % of control; T/C (dose: 3.13 mg/kg/injection, schedule: Q01DX009 (ip), vehicle: saline): 262 % of control; T/C (dose: 4.0 mg/kg/injection, schedule: Q01DX005 (ip), vehicle: water): 215 % of control; T/C (dose: 4.0 mg/kg/injection, schedule: Q01DX009 (ip), vehicle: saline): 245 % of control and 265 % of control; T/C (dose: 4.32 mg/kg/injection, schedule: Q04DX003 (ip), vehicle: saline): 178 % of control; T/C (dose: 4.5 mg/kg/injection, schedule: Q01DX009 (ip), vehicle: saline): 282 % of control; T/C (dose: 6.0 mg/kg/injection, schedule: Q01DX009 (ip), vehicle: Klucel (hydroxypropylcellulose) (HPC)): 95 % of control; T/C (dose: 7.2 mg/kg/injection, schedule: Q04DX003 (ip), vehicle: saline): 200 % of control; T/C (dose: 8.0 mg/kg/injection, schedule: Q01DX005 (ip), vehicle: saline): 252 % of control and 256 % of control and 290 % of control; T/C (dose: 8.0 mg/kg/injection, schedule: Q01DX005 (ip), vehicle: water): 66 % of control; T/C (dose: 8.64 mg/kg/injection, schedule: Q04DX002 (ip), vehicle: saline): 160 % of control; T/C (dose: 12.0 mg/kg/injection, schedule: Q04DX003 (ip), vehicle: saline): 247 % of control; T/C (dose: 12.5 mg/kg/injection, schedule: Q01DX005 (ip), vehicle: saline): 162 % of control; T/C (dose: 12.5 mg/kg/injection, schedule: Q01DX009 (ip), vehicle: saline): 196 % of control; T/C (dose: 14.4 mg/kg/injection, schedule: Q04DX002 (ip), vehicle: saline): 175 % of control; T/C (dose: 16.0 mg/kg/injection, schedule: Q01DX005 (ip), vehicle: saline): 273 % of control; T/C (dose: 20.0 mg/kg/injection, schedule: Q01DX009 (ip), vehicle: saline): 223 % of control; T/C (dose: 20.0 mg/kg/injection, schedule: Q04DX003 (ip), vehicle: saline): 279 % of control; T/C (dose: 24.0 mg/kg/injection, schedule: Q04DX002 (ip), vehicle: saline): 200 % of control; T/C (dose: 25.0 mg/kg/injection, schedule: Q01DX005 (ip), vehicle: saline): 176 % of control; T/C (dose: 25.0 mg/kg/injection, schedule: Q01DX009 (ip), vehicle: saline): 196 % of control; T/C (dose: 33.0 mg/kg/injection, schedule: Q01DX009 (ip), vehicle: saline): 233 % of control; T/C (dose: 40.0 mg/kg/injection, schedule: Q04DX002 (ip), vehicle: saline): 217 % of control; T/C (dose: 44.0 mg/kg/injection, schedule: Q01DX005 (ip), vehicle: saline): 178 % of control; T/C (dose: 49.0 mg/kg/injection, schedule: Q01DX001 (ip), vehicle: saline): 165 % of control; T/C [1]: 189 % of control; T/C [2]: 215 % of control; T/C (dose: 67.0 mg/kg/injection, schedule: Q01DX005 (ip), vehicle: saline): 181 % of control; T/C [3]: 182 % of control and 196 % of control; T/C (dose: 110.0 mg/kg/injection, schedule: Q01DX001 (ip), vehicle: saline): 100 % of control; T/C (dose: 150.0 mg/kg/injection, schedule: Q01DX005 (ip), vehicle: saline): 187 % of control; T/C [4]: 185 % of control and 214 % of control; T/C [5]: 110 % of control; T/C (dose: 400.0 mg/kg/injection, schedule: Q01DX009 (ip), vehicle: saline): 88 % of control

**Q.** What does the source list for Oc1ccc2c3c1OC1CCCC4[C@H](C2)N(Cc2ccoc2)CC[C@@]314 (some centres undefined)?
**A.** T/C [2]: 91 % of control; T/C (dose: 100.0 mg/kg/injection, schedule: Q01DX009 (ip), vehicle: saline): 98 % of control; T/C [5]: 91 % of control

**Q.** How did the T/C (dose: 100.0 mg/kg/injection, schedule: Q04DX003 (ip), vehicle: saline with Tween-80) turn out when COc1cccc(/C=C/C(=O)c2ccc(Cl)cc2)c1OC was run?
**A.** Its T/C is 100 % of control.

**Q.** What about the T/C (dose: 200.0 mg/kg/injection, schedule: Q04DX003 (ip), vehicle: saline with Tween-80) of the same compound?
**A.** The T/C was 100 % of control.

**Q.** What about the T/C (dose: 400.0 mg/kg/injection, schedule: Q04DX003 (ip), vehicle: saline with Tween-80) of the same compound?
**A.** The T/C was 90 % of control.

**Q.** For COc1cc(CC(C)N)ccc1O (centres undefined), which T/C (dose: 12.5 mg/kg/injection, schedule: Q01DX009 (ip), vehicle: saline with Tween-80) is on record?
**A.** Its T/C is 100 % of control.

**Q.** What about the T/C (dose: 25.0 mg/kg/injection, schedule: Q01DX009 (ip), vehicle: saline with Tween-80) of the same compound?
**A.** Its T/C is 99 % of control.

**Q.** What about the T/C [6] of the same compound?
**A.** Its T/C is 104 % of control.

**Q.** What about the T/C [7] of the same compound?
**A.** The T/C was 95 % of control.

**Q.** For COC(=N)c1nnn(-c2ccccc2)n1, which T/C (dose: 100.0 mg/kg/injection, schedule: Q04DX003 (ip), vehicle: Klucel (hydroxypropylcellulose) (HPC)) is on record?
**A.** The T/C was 97 % of control.

**Q.** And the T/C (dose: 200.0 mg/kg/injection, schedule: Q04DX003 (ip), vehicle: Klucel (hydroxypropylcellulose) (HPC))?
**A.** The T/C was 97 % of control.

**Q.** And the T/C (dose: 400.0 mg/kg/injection, schedule: Q04DX003 (ip), vehicle: Klucel (hydroxypropylcellulose) (HPC))?
**A.** Its T/C is 95 % of control.

**Q.** Which T/C (dose: 100.0 mg/kg/injection, schedule: Q01DX001 (ip), vehicle: saline with Tween-80) does the source give for O=C1CSC(c2c(O)ccc3ccccc23)N1CCN1C(=O)CSC1c1c(O)ccc2ccccc12 (centres undefined) here?
**A.** The T/C was 97 % of control.

**Q.** And the T/C (dose: 200.0 mg/kg/injection, schedule: Q01DX001 (ip), vehicle: saline with Tween-80)?
**A.** Its T/C is 92 % of control.

**Q.** What about the T/C (dose: 400.0 mg/kg/injection, schedule: Q01DX001 (ip), vehicle: saline with Tween-80) of the same compound?
**A.** Its T/C is 90 % of control.

**Q.** For O=C1C=CC(=O)C2=C1C1C3=C(C(=O)C=CC3=O)C2c2ccccc21, which T/C [6] is on record?
**A.** The T/C was 110 % of control.

**Q.** What about the T/C [7] of the same compound?
**A.** The T/C was 106 % of control.

**Q.** What about the T/C (dose: 200.0 mg/kg/injection, schedule: Q01DX009 (ip), vehicle: saline with Tween-80) of the same compound?
**A.** The T/C was 101 % of control.

**Q.** Which T/C (dose: 12.5 mg/kg/injection, schedule: Q04DX002 (ip), vehicle: saline) does the source give for COc1cc(C=C2C(=O)C=CC2=O)ccc1O here?
**A.** Its T/C is 92 % of control.

**Q.** And the T/C (dose: 25.0 mg/kg/injection, schedule: Q04DX002 (ip), vehicle: saline)?
**A.** Its T/C is 96 % of control.

**Q.** Which T/C (dose: 12.5 mg/kg/injection, schedule: Q01DX009 (ip), vehicle: distilled water + Tween-80) does the source give for O=C(Nc1ccccc1)c1csc(-c2csc(CCNC(=O)C(F)(F)F)n2)n1 here?
**A.** The T/C was 88 % of control.

**Q.** And the T/C (dose: 25.0 mg/kg/injection, schedule: Q01DX009 (ip), vehicle: distilled water + Tween-80)?
**A.** The T/C was 88 % of control.

**Q.** And the T/C (dose: 100.0 mg/kg/injection, schedule: Q01DX009 (ip), vehicle: distilled water + Tween-80)?
**A.** Its T/C is 88 % of control.

**Q.** What about the T/C (dose: 200.0 mg/kg/injection, schedule: Q01DX009 (ip), vehicle: distilled water + Tween-80) of the same compound?
**A.** The T/C was 89 % of control.

**Q.** CN(C)Cc1onc(-c2c(Cl)cccc2Cl)c1C(=O)O was tested. Which T/C (dose: 60.0 mg/kg/injection, schedule: Q01DX005 (ip), vehicle: saline with Tween-80) did it give?
**A.** The T/C was 103 % of control.

**Q.** And the T/C (dose: 120.0 mg/kg/injection, schedule: Q01DX005 (ip), vehicle: saline with Tween-80)?
**A.** The T/C was 95 % of control.

**Q.** Which results are given for N=C(N)c1ccc(O)cc1?
**A.** T/C [1]: 102 % of control; T/C [3]: 111 % of control; T/C [4]: 112 % of control
